pIC50: −log10 of the molar value. Counter-ions that a name gives are not always drawn. Like-named read-outs stand apart in the source and are kept apart here. Each block holds one compound with its values, some of them ahead of it.
System: Aβ1-42 production
Assay: Cellular assay for inhibition of Aβ1-42 production (H4 APP751 SWE clone 8.20)
Format: cell-based
Conditions: H4 APP751 SWE clone 8.20 cells, 19 h incubation
Procedure, shortened: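 19 h cell treatment, 37 °C/5% CO2. Detection of secreted Aβ42 in the cell plate: 565 (Aβ42-specific, Wallac) and 26D6 (N-terminal, APC), overnight 4 °C. IC50 from fitted curves.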

[1] = class symbols, read-out: Activity Rating (Aβ42 cellular IC50)
[2] = 19 h, class symbols, read-out: Activity Rating (Aβ42 cellular IC50)
[3] = 19 h, read-out: Activity Rating (Aβ42 cellular IC50), numeric value

pIC50 [3]: 7.74
Compound: CCC(COC)Nc1nc(Nc2ccc(-n3cnc(Cl)c3)c(OC)c2)nc2c1CCC2c1ccc(F)cc1 [Example 48, N2-(4-(4-chloro-1H-imidazol-1-yl)-3-methoxyphenyl)-7-(4-fluorophenyl)-N4-((R)-1-methoxybutan-2-yl)-6,7-dihydro-5H-cyclopenta[d]pyrimidine-2,4-diamine, 2 TFA]

pIC50 [2]: 8.00 to 8.82
Compound: COc1cc(Nc2nc(NS(C)(=O)=O)c3c(n2)C(c2ccccc2)CC3)ccc1-n1cnc(Cl)c1 (stereo not shown) [Example 211, N-(2-(4-(4-chloro-1H-imidazol-1-yl)-3-methoxyphenylamino)-7-phenyl-6,7-dihydro-5H-cyclopenta[d]pyrimidin-4-yl)-N-methanesulfonamide]

pIC50 [2]: 7.00 to 8.00
Compound: CCN(C)c1nc(Nc2ccc(-n3cnc(Cl)c3)c(OC)c2)nc2c1CN(C)CC2c1ccc(F)cc1 (stereo not shown) [Example 165, N2-(4-(4-chloro-1H-imidazol-1-yl)-3-methoxyphenyl)-N4-ethyl-8-(4-fluorophenyl)-N4,6-dimethyl-5,6,7,8-tetrahydropyrido[4,3-d]pyrimidine-2,4-diamine]

pIC50 [3]: 6.70
Compound: CCC1CCCN1c1nc(Nc2ccc(-n3cnc(Cl)c3)c(OC)c2)nc2c1CCC2c1ccc(F)cc1 (single isomer, unassigned) [Example 24B, N-(4-(4-chloro-1H-imidazol-1-yl)-3-methoxyphenyl)-4-(2-ethylpyrrolidin-1-yl)-7-(4-fluorophenyl)-6,7-dihydro-5H-cyclopenta[d]pyrimidin-2-amine]

pIC50 [3]: 6.89
Compound: CC[C@H](COC)Nc1nc(Nc2ccc(-n3cnc(Cl)c3)c(OC)c2)nc2c1CCC2c1ccc(F)cc1 (single isomer, unassigned) [Example 48B]

pIC50 (read-out: Activity Rating (Aβ42 cellular IC50), numeric value): 7.22
Compound: CCNc1nc(Nc2ccc(-n3cnc(Cl)c3)c(OC)c2)nc2c1CN(CC(F)F)CC2c1ccccc1 (stereo not shown) [Example 197A, N4-ethyl-N2-(3-methoxy-4-(4-chloro-1H-13-imidazol-1-yl)phenyl)-8-phenyl-6-(2,2-difluoroethyl)-5,6,7,8-tetrahydropyrido[4,3-d]pyrimidine-2,4-diamine]

pIC50 [2]: 8.00 to 8.82
Compound: CC[C@H](COC)Nc1nc(Nc2ccc(-n3cnc(Cl)c3)c(OC)c2)nc2c1CCC2c1ccc(F)cc1 (single isomer, unassigned) [Example 48A]

pIC50 [1]: 8.00 to 8.82
Compound: COc1cc(Nc2nc3c(c(N(C)C)n2)CCC3c2ccccc2)ccc1-n1cnc(Cl)c1 (single isomer, unassigned) [Example 4A, N^2-(4-(4-chloro-1H-imidazol-1-yl)-3-methoxyphenyl)-N^4,N^4-dimethyl-7-phenyl-6,7-dihydro-5H-cyclopenta[d]pyrimidine-2,4-diamine]

pIC50 [2]: 7.00 to 8.00
Compound: COc1cc(Nc2nc3c(c(N(C)C)n2)COCC3c2ccccc2)ccc1-n1cnc(Cl)c1 (racemic) [Example 53, N^2-(4-(4-Chloro-1H-imidazol-1-yl)-3-methoxyphenyl)-N^4,N^4-dimethyl-8-phenyl-7,8-dihydro-5H-pyrano[4,3-d]pyrimidine-2,4-diamine]

The remaining lines, values behind:

Compound: COc1cc(Nc2nc3c(c(N4CC(F)(F)C4)n2)COCC3c2ccc(Cl)cc2)ccc1-n1cnc(Cl)c1 (single isomer, unassigned) [Example 66A, N-(4-(4-chloro-1H-imidazol-1-yl)-3-methoxyphenyl)-8-(4-chlorophenyl)-4-(3,3-difluoroazetidin-1-yl)-7,8-dihydro-5H-pyrano[4,3-d]pyrimidin-2-amine]
pIC50 [1]: 6.00 to 7.00

Compound: CNc1nc(Nc2ccc(-n3cnc(C)n3)c(OC)c2)nc2c1CCC2c1ccc(N(C)C)cc1 (stereo not shown) [Example 273, 7-(4-(dimethylamino)phenyl)-N2-(3-methoxy-4-(3-methyl-1H-1,2,4-triazol-1-yl)phenyl)-N4-methyl-6,7-dihydro-5H-cyclopenta[d]pyrimidine-2,4-diamine]
pIC50 [2]: 7.00 to 8.00

Compound: CNc1nc(Nc2ccc(Br)c(C#N)c2)nc2c1CCC2c1ccccc1 (stereo not shown) [Example 242, 2-bromo-5-(4-(methylamino)-7-phenyl-6,7-dihydro-5H-cyclopenta[d]pyrimidin-2-ylamino)benzonitrile]
pIC50 [3]: 7.17

Compound: COc1cc(Nc2nc3c(c(N4CC(F)(F)C4)n2)COCC3c2ccc(F)cc2)ccc1-n1cnc(Cl)c1 (stereo not shown) [Example 63B, N-(4-(4-chloro-1H-imidazol-1-yl)-3-methoxyphenyl)-4-(3,3-difluoroazetidin-1-yl)-8-(4-fluorophenyl)-7,8-dihydro-5H-pyrano[4,3-d]pyrimidin-2-amine]
pIC50 [1]: 6.00 to 7.00

Compound: COc1cc(Nc2nc3c(c(N4C[C@@H](C)O[C@@H](C)C4)n2)CCC3c2ccc(F)cc2)ccc1-n1cnc(Cl)c1 (single isomer, unassigned) [Example 21B]
pIC50 [1]: 6.00 to 7.00

Compound: CCNc1nc(Nc2ccc(-n3cnc(Cl)c3)c(OC)c2)nc2c1COCC2c1ccc(C(F)(F)F)cc1 (racemic) [Example 118, N2-(4-(4-chloro-1H-imidazol-1-yl)-3-methoxyphenyl)-N4-ethyl-8-(4-(trifluoromethyl)phenyl)-7,8-dihydro-5H-pyrano[4,3-d]pyrimidine-2,4-diamine, TFA]
pIC50 [2]: 7.00 to 8.00

Compound: COc1cc(Nc2nc3c(c(N4CCC(O)(C(F)(F)F)C4)n2)CCC3c2ccc(F)cc2)ccc1-n1cnc(Cl)c1 (single isomer, unassigned) [Example 28A, 1-(2-(4-(4-chloro-1H-imidazol-1-yl)-3-methoxyphenylamino)-7-(4-fluorophenyl)-6,7-dihydro-5H-cyclopenta[d]pyrimidin-4-yl)-3-(trifluoromethyl)pyrrolidin-3-ol]
pIC50 [1]: 7.00 to 8.00

Compound: CCNc1nc(Nc2ccc(-n3cnc(Cl)c3)c(OC)c2)nc2c1COCC2c1ccc(C(F)(F)F)cc1 (stereo not shown) [Example 118A, N2-(4-(4-chloro-1H-imidazol-1-yl)-3-methoxyphenyl)-N4-ethyl-8-(4-(trifluoromethyl)phenyl)-7,8-dihydro-5H-pyrano[4,3-d]pyrimidine-2,4-diamine]
pIC50 [1]: 8.00 to 8.82

Compound: CCNc1nc(Nc2ccc(-n3ncnc3C)c(F)c2)nc2c1COCC2c1ccc(F)c(F)c1 (racemic) [Example 116, 8-(3,4-difluorophenyl)-N4-ethyl-N2-(3-fluoro-4-(5-methyl-1H-1,2,4-triazol-1-yl)phenyl)-7,8-dihydro-5H-pyrano[4,3-d]pyrimidine-2,4-diamine, TFA]
pIC50 [2]: 7.00 to 8.00

Compound: CNc1nc(Nc2ccc(C(=O)N(C)C)cc2)nc2c1CCC2c1ccccc1 (stereo not shown) [Example 243, N,N-dimethyl-4-(4-(methylamino)-7-phenyl-6,7-dihydro-5H-cyclopenta[d]pyrimidin-2-ylamino)benzamide]
pIC50 [2]: 6.00 to 7.00

Compound: CNc1nc(Nc2ccc(-n3ncnc3C)c(F)c2)nc2c1COCC2c1ccc(Cl)cc1 (stereo not shown) [Example 69, 8-(4-chlorophenyl)-N^2-(3-fluoro-4-(5-methyl-1H-1,2,4-triazol-1-yl)phenyl)-N^4-methyl-7,8-dihydro-5H-pyrano[4,3-d]pyrimidine-2,4-diamine]
pIC50 [2]: 7.00 to 8.00

Compound: COc1cc(Nc2nc3c(c(N4CC(F)(F)C4)n2)CCC3c2ccc(OC(F)(F)F)cc2)ccc1-n1cnc(Cl)c1 (single isomer, unassigned) [Example 99A, N-(4-(4-chloro-1H-imidazol-1-yl)-3-methoxyphenyl)-4-(3,3-difluoroazetidin-1-yl)-7-(4-(trifluoromethoxy)phenyl)-6,7-dihydro-5H-cyclopenta[d]pyrimidin-2-amine]
pIC50 [2]: 7.00 to 8.00

Compound: COc1ccc(CN2CCc3c(nc(Nc4ccc(-n5cnc(Cl)c5)c(OC)c4)nc3N3CC[C@H](F)C3)C2c2ccc(F)cc2)cc1 (stereo partly drawn) [Example 167A, N-(4-(4-chloro-1H-imidazol-1-yl)-3-methoxyphenyl)-8-(4-fluorophenyl)-4-((S)-3-fluoropyrrolidin-1-yl)-7-(4-methoxybenzyl)-5,6,7,8-tetrahydropyrido[3,4-d]pyrimidin-2-amine]
pIC50 [3]: 7.59

Compound: CNc1nc(Nc2ccc(C#N)nc2)nc2c1CCC2c1ccccc1 (stereo not shown) [Example 230, 5-(4-(methylamino)-7-phenyl-6,7-dihydro-5H-cyclopenta[d]pyrimidin-2-ylamino)picolinonitrile]
pIC50 [3]: 7.38

Compound: CCNc1nc(Nc2ccc(-n3ncnc3C)c(F)c2)nc2c1COC2c1ccc(F)cc1 (single isomer, unassigned) [Example 78A, N^4-ethyl-N^2-(3-fluoro-4-(5-methyl-1H-1,2,4-triazol-1-yl)phenyl)-7-(4-fluorophenyl)-5,7-dihydrofuro[3,4-d]pyrimidine-2,4-diamine]
pIC50 [3]: 7.72

Compound: CNc1nc(Nc2ccc3nc(C)sc3c2)nc2c1CCC2c1ccccc1 (stereo not shown) [Example 255, N4-methyl-N2-(2-methylbenzo[d]thiazol-6-yl)-7-phenyl-6,7-dihydro-5H-cyclopenta[d]pyrimidine-2,4-diamine]
pIC50 [2]: < 6.00

Compound: CCNc1nc(Nc2ccc(-n3cnc(Cl)c3)c(OC)c2)nc2c1CCOC2c1ccc(F)cc1 (stereo not shown) [Example 88B, N2-(4-(4-chloro-1H-imidazol-1-yl)-3-methoxyphenyl)-N4-ethyl-8-(4-fluorophenyl)-6,8-dihydro-5H-pyrano[3,4-d]pyrimidine-2,4-diamine]
pIC50 [2]: 7.00 to 8.00

Compound: CNc1nc(Nc2ccc(-n3cnc(C)n3)c(OC)c2)nc2c1CCC2c1ccc(F)cc1 (single isomer, unassigned) [Example 44A, 7-(4-fluorophenyl)-N2-(3-methoxy-4-(3-methyl-1H-1,2,4-triazol-1-yl)phenyl)-N4-methyl-6,7-dihydro-5H-cyclopenta[d]pyrimidine-2,4-diamine]
pIC50 [2]: 8.00 to 8.82

Compound: Cc1ncnn1-c1ccc(Nc2nc3c(c(N4CC(F)(F)C4)n2)CCC3c2ccc(F)cc2)cc1F (single isomer, unassigned) [Example 16B, 4-(3,3-difluoroazetidin-1-yl)-N-(3-fluoro-4-(5-methyl-1H-1,2,4-triazol-1-yl)phenyl)-7-(4-fluorophenyl)-6,7-dihydro-5H-cyclopenta[d]pyrimidin-2-amine]
pIC50 [1]: 6.00 to 7.00
